ChEMBL document CHEMBL5346922, “Discovery of phenylcarbamoyl xanthone derivatives as potent neuroprotective agents for treating ischemic stroke” (Eur J Med Chem, 2023)

Tests used:
PC-12 [1] = test: Neuroprotective activity against H2O2-induced oxidative damage in rat PC12 cells assessed as increase in cell survival at 20 uM pretreated with H2O2 for 24 hrs followed by compound addition and measured after 24 hrs; type: functional; details: read-out: Survival
PC-12 [2] = test: Neuroprotective activity in rat PC12 cells assessed as protection against glutamate induced excitotoxicity at 20 uM pretreated with glutamate for 24 hrs followed by compound addition and measured after 24 hrs; type: functional
PC-12 [3] = test: Neuroprotective activity against H2O2-induced oxidative damage in rat PC12 cells at 20 uM pretreated with H2O2 for 24 hrs followed by compound addition and measured after 24 hrs; type: functional
PC-12 [4] = test: Neuroprotective activity against glutamate induced excitotoxicity in rat PC12 cells assessed as cell survival at 20 uM pretreated with glutamate for 24 hrs followed by compound addition and measured after 24 hrs; type: functional; details: read-out: Survival
PC-12 [5] = test: Neuroprotective activity against glutamate induced excitotoxicity in rat PC12 cells pretreated with glutamate for 24 hrs followed by compound addition and measured after 24 hrs; type: functional, cell-based
PC-12 [6] = test: Neuroprotective activity against glutamate induced excitotoxicity in rat PC12 cells assessed as cell survival at 160 uM pretreated with glutamate for 24 hrs followed by compound addition and measured after 24 hrs; type: functional; details: read-out: Survival
PC-12 [7] = test: Neuroprotective activity in rat PC12 cells assessed as protection against glutamate induced excitotoxicity at 160 uM pretreated with glutamate for 24 hrs followed by compound addition and measured after 24 hrs; type: functional
PC-12 [8] = test: Neuroprotective activity against glutamate induced excitotoxicity in rat PC12 cells assessed as cell survival at 25 uM pretreated with glutamate for 24 hrs followed by compound addition and measured after 24 hrs; type: functional; details: read-out: Survival

Compound	viability at 20 µM (PC-12 [1])	Activity (PC-12 [2])	Activity (PC-12 [3])	viability at 20 µM (PC-12 [4])	EC50 (PC-12 [5])	viability at 160 µM (PC-12 [6])	Activity (PC-12 [7])	viability at 25 µM (PC-12 [8])
CCN(C(=O)Oc1cc2oc3cc4c(c(O)c3c(=O)c2c(CC=C(C)C)c1OC)C=CC(C)(C)O4)c1ccccc1	65.1%	38.13%	21.74%	57%				
COc1c(OC(=O)N(C)c2cccc(Cl)c2)cc2oc3cc4c(c(OC)c3c(=O)c2c1CC=C(C)C)C=CC(C)(C)O4	68%	7.91%	28.17%	36%				
COc1c(OC(=O)N(CC2CC2)c2ccccc2C)cc2oc3cc4c(c(O)c3c(=O)c2c1CC=C(C)C)C=CC(C)(C)O4	60.6%	0%	11.7%	30.5%				
COc1c(OC(=O)N(C)c2ccccc2)cc2oc3cc4c(c(OC)c3c(=O)c2c1CC=C(C)C)C=CC(C)(C)O4	70.9%	46.32%	34.72%	62.7%				
COc1c(OC(=O)N(CC2CC2)c2cccc(Br)c2)cc2oc3cc4c(c(O)c3c(=O)c2c1CC=C(C)C)C=CC(C)(C)O4	63.2%	23.09%	17.48%	46.5%				
COc1c(OC(=O)N(C)c2cccc(F)c2)cc2oc3cc4c(c(O)c3c(=O)c2c1CC=C(C)C)C=CC(C)(C)O4	60.9%	53.62%	12.46%	67.8%	19.7 µM			
CC1=NN(c2ccccc2)C(=O)C1 [EDARAVONE]	80.5%		56.36%					
COc1c(OC(=O)N(C)c2cccc(Cl)c2)cc2oc3cc4c(c(O)c3c(=O)c2c1CC=C(C)C)C=CC(C)(C)O4	58.2%	1.57%	6.23%	31.6%				
COc1c(OC(=O)N(C)c2ccccc2F)cc2oc3cc4c(c(O)c3c(=O)c2c1CC=C(C)C)C=CC(C)(C)O4	70.9%	43.78%	34.69%	60.9%				
CC12CC3CC(C)(C1)CC(N)(C3)C2 [MEMANTINE]						63%	46.85%	
COc1cccc(N(C)C(=O)Oc2cc3oc4cc5c(c(O)c4c(=O)c3c(CC=C(C)C)c2OC)C=CC(C)(C)O5)c1	59.6%	31.84%	9.57%	52.6%				
N[C@@H](CCC(=O)O)C(=O)O [GLUTAMIC ACID]								30.5%
COc1c(OC(=O)N(C)c2cccc(C)c2)cc2oc3cc4c(c(O)c3c(=O)c2c1CC=C(C)C)C=CC(C)(C)O4	66.8%	39.04%	25.7%	57.6%				
COc1c(OC(=O)N(C)c2ccccc2)cc2oc3cc4c(c(OCc5ccc(F)cc5)c3c(=O)c2c1CC=C(C)C)C=CC(C)(C)O4	65.5%	0.01%	22.59%	31%				
COc1c(OC(=O)N(CC2CC2)c2ccc(C)cc2)cc2oc3cc4c(c(O)c3c(=O)c2c1CC=C(C)C)C=CC(C)(C)O4	69%	48.26%	30.57%	64%				
COc1ccc(N(C)C(=O)Oc2cc3oc4cc5c(c(O)c4c(=O)c3c(CC=C(C)C)c2OC)C=CC(C)(C)O5)cc1	62.5%	26.88%	16%	49.2%				
COc1c(OC(=O)N(C)c2ccccc2)cc2oc3cc4c(c(OCc5ccc(C(F)(F)F)cc5)c3c(=O)c2c1CC=C(C)C)C=CC(C)(C)O4	60.9%	6.46%	12.35%	35%				
COc1c(OC(=O)N(C)c2cccc(C)c2)cc2oc3cc4c(c(OC)c3c(=O)c2c1CC=C(C)C)C=CC(C)(C)O4	62.3%	38.81%	15.51%	57.5%				
